Laboratory results published in patent publication US20240058417A1, “AMELIORATION AND TREATMENT OF INFARCTION DAMAGE” (priority 2021, published 2024).

Legend:
recombinant BNIP3 = recombinant BNIP3 (Mus musculus, UniProt O55003); experiment: BNIP3/peptide microarray (truncation and substitution analysis); assay type: binding; settings: FIG. 3H
myocardial I/R injury = experiment: in vivo murine myocardial I/R: infarct size, troponin, apoptosis, cardiac function; design: species or system mouse; settings: wild-type mice
BNIP3/BAX = experiment: in vivo murine myocardial I/R: necrotic and apoptotic signaling in the area at risk; design: species or system mouse; settings: AAR
[1] = system: DOX-induced cardiotoxicity; experiment: DOX treatment in vivo (cardiotoxicity, 42 days)
human cardiomyocytes = experiment: DOX-induced cell death and mitochondrial damage in human cardiomyocytes (HCM); settings: 10 μM DOX
[2] = biological target: T1, Recombinant Mouse BCL2/adenovirus E1B 19 kDa protein interacting protein 3 (Bnip3) (mouse, UniProt O55003 1-187, labelled with DyLight 650 (Dy650) where used as the soluble probe); experiment: N-terminal sequence truncation analysis, peptide microarray with rBNIP3
T1 construct: Bought recombinant protein; also called rBNIP3; recombinant BNIP3
T1 sequence (O55003 whole entry, the tested form may be a part): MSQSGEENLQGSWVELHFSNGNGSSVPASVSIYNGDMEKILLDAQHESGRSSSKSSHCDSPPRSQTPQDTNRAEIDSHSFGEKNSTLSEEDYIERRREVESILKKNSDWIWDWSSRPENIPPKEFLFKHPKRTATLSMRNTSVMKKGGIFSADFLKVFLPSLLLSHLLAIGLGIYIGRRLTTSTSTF

[3] = biological target: T1, Recombinant Mouse BCL2/adenovirus E1B …; experiment: BNIP3/peptide microarray, labelled rBNIP3 on immobilised truncation peptides

Sequence of recombinant BNIP3 (O55003 whole entry, the tested form may be a part): as above

Q: Which “luminescence in N-terminal truncation analysis” value (recombinant BNIP3) does the source give for VELHFSN here?
A: substantially higher luminescence

Q: “GRKKRRQRRRPQMSQSGEENLQGSWVELHFSN [TAT-BNIP3-20A, HIV-1 PTD attached to 20 amino acids derived from BNIP3 1-20]” was tested. Which “reduction in infarct size relative to vehicle” value (myocardial I/R injury; peptide 5 minutes before reperfusion, 30 min ischemia/24 h reperfusion) did it give?
A: 41%

Q: What about the caspase-3 activity (BNIP3/BAX) of the same molecule?
A: markedly reduced

Q: What about the “BNIP3 translocation to the mitochondria” value (BNIP3/BAX; wild-type mice, 10 minutes reperfusion) of the same molecule?
A: prevented

Q: What does the source list for `COc1cccc2c1C(=O)c1c(O)c3c(c(O)c1C2=O)C[C@@](O)(C(=O)CO)C[C@@H]3O[C@H]1C[C@H](N)[C@H](O)[C@H](C)O1` [DOX, Doxorubicin]?
A: heart rate ([1]; DOX alone or in combination with PepB): unaffected; CQ mediated LC3II/I increase (autophagic flux) ([1]; additional chloroquine treatment): abolished; basal respiration ([1]; cardiac mitochondria, Seahorse): affected; maximal respiration ([1]; cardiac mitochondria, Seahorse): affected; respiratory reserve capacity (OCR) ([1]; cardiac mitochondria, Seahorse): inhibited; BNIP3 accumulation ([1]; mouse, in vivo): triggered; cardiomyocyte death (cardiac troponin I levels) ([1]; mouse, in vivo): dramatic positive effect; p62 accumulation ([1]; mouse, in vivo): triggered; mPTP opening (human cardiomyocytes): activated; mitochondrial ROS generation (human cardiomyocytes; four and 22 hours): triggered; mitochondrial membrane potential (human cardiomyocytes; four and 22 hours): disrupted; mitochondrial calcium ion overload (human cardiomyocytes; four hours): induced

Q: “GRKKRRQRRRPQLDAQHESGRSSSKSSHCDSP [TAT-BNIP3-20C, control peptide, HIV-1 PTD attached to BNIP3 amino acids 42-61]” was tested. Which “infarct size compared with vehicle treatment” value (myocardial I/R injury; 5 minutes before reperfusion, 24 h reperfusion) did it give?
A: no difference was observed

B1: VELHFSN (peptide)
peptide: VELHFSN
notes: N-terminal truncation of BNIP3 1-20 on the peptide microarray
Q: Does B1 bind [2]?
A: binds

B2: WVELHFSN (BNIP3 amino acid residues 13-20) (peptide)
peptide: WVELHFSN
notes: Immobilised on peptide microarrays (JPT); also called truncated peptide
Q: How did the “fold signal increase compared to the 20 residues of BNIP3-20A peptide” value [3] turn out when B2 was run?
A: 14 fold
